PubChem BioAssay AID2060512 (Molecular Pharmacology Branch, DTP, NCI, 2025)
Values joined by “and” are separate entries in the source; they are usually repeats but may differ in a detail not shown here. Equal entries are not always repeated.

System: 186277-243-T-J2-PDC complex spheroid viability
Assay: Anticancer human tumor 186277-243-T-J2-PDC patient-derived colon adenocarcinoma cell line growth inhibition [GQUAD]
Details: for viability, T/C: stronger effect = lower value
From the text: DNA G-quadruplex Stabilizer Agents in Combinations in Complex Spheroids
A high-throughput screen of multi-cell type tumor spheroids was designed to identify active combinations of DNA G-quadruplex stabilizer agents and targeted small molecules. Complex spheroids include a stromal component modeled by human endothelial cells (HUVEC) and fibroblasts modeled by human mesenchymal stem cells (MSCs). The concentration ranges selected for each drug and investigational agent were based upon clinically achievable concentrations if the clinical Cmax of the agent was known.
Compounds. The drugs and investigational agents: pidnarulex (CX-5461; NSC782164), APTO-253 (NSC789042), BRACO-19 (NSC847499), peposertib (NSC802822), ceralasertib (NSC780249), elimusertib (NSC800525), camonsertib (NSC841442), AZD-1390 (NSC803789), olaparib (NSC753686), talazoparib (NSC767125), ART-558 (NSC835418), sotorasib (NSC818433), MRTX-1133 (NSC836407), SN-38 (NSC673596), topotecan (NSC609699), etoposide (NSC141540), doxorubicin (NSC123127), gemcitabine (NSC613327), 5-fluorouracil (NSC19893), paclitaxel (NSC125973), vemurafenib (NSC761431), panobinostat (NSC761190), R-306465 (JNJ-16241199; NSC773264), adavosertib (NSC754352), TP-3654 (NSC805149), carboplatin (NSC241240), KSQ-4279 (NSC840948), and staurosporine (NSC755774) were obtained from the National Cancer Institute (NCI) Developmental Therapeutics Program Chemical Repository (34). The FDA-approved anticancer drug set is available from the NCI Developmental Therapeutics Program. […] The stock solutions were prepared in dimethyl sulfoxide (DMSO, Sigma-Aldrich, St. Louis, MO, cat. D2650) at 800-fold the tested concentration and stored at -70 degrees C prior to their use. All drugs and investigational agents were tested over a range starting from a high concentration at or near the clinical Cmax and decreasing in half-log increments. If the clinical Cmax for an agent had not been determined, the highest concentration tested was 10 microM.
2.3 Cell Culture. All cells were maintained in an incubator at 37 degrees C and 5% CO2 with 95% humidity. The PDC lines were cultured according to standard operating procedures established by the NCI PDMR. All PDCs were thawed and cultured in Matrigel-coated flasks prepared with a working solution of 1X Ham's F-12 nutrient mix, without supplementation (Invitrogen, cat. 11765054), 100 U/mL penicillin-streptomycin (Invitrogen, cat. 15140122), and 2.5% Matrigel (Corning Inc., cat. 354248) for the first three passages. The 857933-349-R-J2-PDC line was cultured in 6C/Colon 1B media, which includes advanced DMEM/F-12 (Thermo Fisher Scientific, cat. 12634028), 10 mM HEPES (Thermo Fisher Scientific, cat. 15630080), 1X GlutaMAX supplement (Thermo Fisher Scientific, cat. 35050061), 0.1 mg/mL primocin (InvivoGen, cat. ant-pm-2), 10% defined fetal bovine serum, heat inactivated (HyClone Laboratories Inc., cat. SH30070.03HI), 50% L-WRN conditioned media (ATCC, cat. CRL-3276), 1.25 mM N-Acetyl-L-cysteine (Sigma-Aldrich, cat. A9165), 10 mM nicotinamide (Sigma-Aldrich, cat. N0636), 1X B-27 supplement (Thermo Fisher Scientific, cat. 17504044), 1X N-2 supplement (Thermo Fisher Scientific, cat. 17502048), 10 microM Y-27632 dihydrochloride (Tocris Bioscience, cat. 1254), and 50 ng/mL human EGF recombinant protein (Thermo Fisher Scientific, cat. PHG0311). The 485176-168-R4-J1-PDC line was cultured in Panc media, which includes all 6C/Colon 1B media components plus 100 ng/mL human FGF-10 (Thermo Fisher Scientific, cat. 100-26), 500 nM SB-431542 (Selleckchem, cat. S1067), and gastrin (Tocris, cat. 3006).
[…]

[1] = curve of first compound, second compound 0.0316 µM
[2] = curve of first compound, second compound 0.1 µM
[3] = curve of first compound, second compound 0.316 µM
[4] = curve of first compound, second compound 1 µM
[5] = curve of first compound, second compound 3.16 µM
[6] = curve of first compound, second compound 10 µM
[7] = second compound 0.0316 µM, first compound 0.0316 µM
[8] = second compound 0.0316 µM, first compound 0.316 µM
[9] = second compound 0.1 µM, first compound 0.0316 µM
[10] = second compound 0.1 µM, first compound 0.316 µM
[11] = second compound 0.316 µM, first compound 0.0316 µM
[12] = second compound 0.316 µM, first compound 0.316 µM
[13] = second compound 1 µM, first compound 0.0316 µM
[14] = second compound 1 µM, first compound 0.316 µM
[15] = second compound 3.16 µM, first compound 0.0316 µM
[16] = second compound 3.16 µM, first compound 0.316 µM
[17] = second compound 10 µM, first compound 0.0316 µM
[18] = second compound 10 µM, first compound 0.316 µM
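Also: spheroids exposed to drugs for 7 days.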
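For viability, T/C in this document: 100% = DMSO vehicle control viability.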

`Cn1ncnc1[C@H]1c2n[nH]c(=O)c3cc(F)cc(c23)N[C@@H]1c1ccc(F)cc1` + CN(C)c1ccc(Nc2c3ccc(NC(=O)CCN4CCCC4)cc3nc3cc(NC(=O)CCN4CCCC4)ccc23)cc1 was tested, and the IC50 [1] was > 316 nM, the IC50 [2] was > 316 nM and the IC50 [3] was > 316 nM. For the same compound, the IC50 [4] was > 316 nM, the IC50 [5] was > 316 nM and the IC50 [6] was > 316 nM. It also gave a viability, T/C (second compound 0.0316 µM, first compound 0.000999 µM) of 91.8%, a viability, T/C (second compound 0.0316 µM, first compound 0.00316 µM) of 104% and a viability, T/C (second compound 0.0316 µM, first compound 0.00999 µM) of 108%. For the same compound, the viability, T/C [7] was 80.6%, the viability, T/C (second compound 0.0316 µM, first compound 0.0999 µM) was 86.6% and the viability, T/C [8] was 76.8%. The viability, T/C (second compound 0.1 µM, first compound 0.000999 µM) was 108%, the viability, T/C (second compound 0.1 µM, first compound 0.00316 µM) was 113% and the viability, T/C (second compound 0.1 µM, first compound 0.00999 µM) was 96.2%. For the same compound, the viability, T/C [9] was 114%, the viability, T/C (second compound 0.1 µM, first compound 0.0999 µM) was 90.2% and the viability, T/C [10] was 82%. For the same compound, the viability, T/C (second compound 0.316 µM, first compound 0.000999 µM) was 83.8%, the viability, T/C (second compound 0.316 µM, first compound 0.00316 µM) was 108% and the viability, T/C (second compound 0.316 µM, first compound 0.00999 µM) was 102%. For the same compound, the viability, T/C [11] was 115%, the viability, T/C (second compound 0.316 µM, first compound 0.0999 µM) was 92.1% and the viability, T/C [12] was 86.8%. It also gave a viability, T/C (second compound 1 µM, first compound 0.000999 µM) of 105%, a viability, T/C (second compound 1 µM, first compound 0.00316 µM) of 91.8% and a viability, T/C (second compound 1 µM, first compound 0.00999 µM) of 97.6%. For the same compound, the viability, T/C [13] was 106%, the viability, T/C (second compound 1 µM, first compound 0.0999 µM) was 85.6% and the viability, T/C [14] was 85%. It also gave a viability, T/C (second compound 3.16 µM, first compound 0.000999 µM) of 101%, a viability, T/C (second compound 3.16 µM, first compound 0.00316 µM) of 94.7% and a viability, T/C (second compound 3.16 µM, first compound 0.00999 µM) of 107%. It also gave a viability, T/C [15] of 94%, a viability, T/C (second compound 3.16 µM, first compound 0.0999 µM) of 85.5% and a viability, T/C [16] of 94.6%. The viability, T/C (second compound 10 µM, first compound 0.000999 µM) was 114%, the viability, T/C (second compound 10 µM, first compound 0.00316 µM) was 92.3% and the viability, T/C (second compound 10 µM, first compound 0.00999 µM) was 99.2%. For the same compound, the viability, T/C [17] was 106%, the viability, T/C (second compound 10 µM, first compound 0.0999 µM) was 83.6% and the viability, T/C [18] was 82%.
`CC1COCCN1c1cc(-c2ccnn2C)c2ccnc(-c3ccn[nH]3)c2n1` (stereo not drawn) + Cc1cnc(CNC(=O)c2c(=O)c3ccc(N4CCCN(C)CC4)nc3n3c2sc2ccccc23)cn1 was tested, and the IC50 [1] was < 31.6 nM, the IC50 [2] was < 31.6 nM and the IC50 [3] was < 31.6 nM. The IC50 [4] was < 31.6 nM, the IC50 [5] was < 31.6 nM and the IC50 [6] was < 31.6 nM. For the same compound, the viability, T/C [7] was 34.5%, the viability, T/C (second compound 0.0316 µM, first compound 0.1 µM) was 16.1% and the viability, T/C [8] was 9.69%. It also gave a viability, T/C (second compound 0.0316 µM, first compound 1 µM) of 5.33%, a viability, T/C (second compound 0.0316 µM, first compound 3.16 µM) of 6.04% and a viability, T/C (second compound 0.0316 µM, first compound 10 µM) of 5.15%. The viability, T/C [9] was 46.1%, the viability, T/C (second compound 0.1 µM, first compound 0.1 µM) was 22.2% and the viability, T/C [10] was 11.5%. It also gave a viability, T/C (second compound 0.1 µM, first compound 1 µM) of 6.17%, a viability, T/C (second compound 0.1 µM, first compound 3.16 µM) of 6.04% and a viability, T/C (second compound 0.1 µM, first compound 10 µM) of 5.5%. The viability, T/C [11] was 46.5%, the viability, T/C (second compound 0.316 µM, first compound 0.1 µM) was 30% and the viability, T/C [12] was 21%. The viability, T/C (second compound 0.316 µM, first compound 1 µM) was 10.3%, the viability, T/C (second compound 0.316 µM, first compound 3.16 µM) was 6.67% and the viability, T/C (second compound 0.316 µM, first compound 10 µM) was 5.76%. For the same compound, the viability, T/C [13] was 35.3%, the viability, T/C (second compound 1 µM, first compound 0.1 µM) was 31.9% and the viability, T/C [14] was 24.9%. The viability, T/C (second compound 1 µM, first compound 1 µM) was 17.1%, the viability, T/C (second compound 1 µM, first compound 3.16 µM) was 10.4% and the viability, T/C (second compound 1 µM, first compound 10 µM) was 5.91%. The viability, T/C [15] was 32.1%, the viability, T/C (second compound 3.16 µM, first compound 0.1 µM) was 28.4% and the viability, T/C [16] was 26.2%. It also gave a viability, T/C (second compound 3.16 µM, first compound 1 µM) of 17.8%, a viability, T/C (second compound 3.16 µM, first compound 3.16 µM) of 13.2% and a viability, T/C (second compound 3.16 µM, first compound 10 µM) of 6.37%. For the same compound, the viability, T/C [17] was 27.9%, the viability, T/C (second compound 10 µM, first compound 0.1 µM) was 26% and the viability, T/C [18] was 24.6%. The viability, T/C (second compound 10 µM, first compound 1 µM) was 17.3%, the viability, T/C (second compound 10 µM, first compound 3.16 µM) was 12% and the viability, T/C (second compound 10 µM, first compound 10 µM) was 6.6%.
With `COc1cc(C2c3cc4c(cc3C(OC3OC5COC(C)OC5C(O)C3O)C3COC(=O)C23)OCO4)cc(OC)c1O` (stereo not drawn) the viability, T/C (compound 0.0316 µM) was 103% and 110% and 100%, the viability, T/C (compound 0.1 µM) was 100% and 101% and 85.4% and the viability, T/C (compound 0.316 µM) was 102% and 83.6% and 82.1%. The viability, T/C (compound 1 µM) was 72.1% and 50.7% and 50%, the viability, T/C (compound 3.16 µM) was 52.7% and 37% and 36.2% and the viability, T/C (compound 10 µM) was 19.4% and 20.9% and 16.9%. The IC50 (curve of compound) was 3130 nM and 1270 nM and 1310 nM.
In the case of `O=C(c1cc(Cc2n[nH]c(=O)c3ccccc23)ccc1F)N1CCN(C(=O)C2CC2)CC1`, the viability, T/C (compound 0.0316 µM) is reported as 102% and 105% and 100%, the viability, T/C (compound 0.1 µM) is reported as 108% (2×) and 94.6% and the viability, T/C (compound 0.316 µM) is reported as 96.4% and 112% and 87.3%. For the same compound, the viability, T/C (compound 1 µM) was 94.3% and 104% and 77.3%, the viability, T/C (compound 3.16 µM) was 93.3% and 92% and 82.2% and the viability, T/C (compound 10 µM) was 62.3% and 64.2% and 66.5%. For the same compound, the IC50 (curve of compound) was > 10000 nM.
